The assay concerns the target T1, GCS (Canis lupus familiaris, UniProt A0A8I3MXG6).
T1 construct: endogenous in cells; host or cells: MDCK (Madin-Darby canine kidney) cells, whole-cell lysate
T1 sequence (A0A8I3MXG6 1-394): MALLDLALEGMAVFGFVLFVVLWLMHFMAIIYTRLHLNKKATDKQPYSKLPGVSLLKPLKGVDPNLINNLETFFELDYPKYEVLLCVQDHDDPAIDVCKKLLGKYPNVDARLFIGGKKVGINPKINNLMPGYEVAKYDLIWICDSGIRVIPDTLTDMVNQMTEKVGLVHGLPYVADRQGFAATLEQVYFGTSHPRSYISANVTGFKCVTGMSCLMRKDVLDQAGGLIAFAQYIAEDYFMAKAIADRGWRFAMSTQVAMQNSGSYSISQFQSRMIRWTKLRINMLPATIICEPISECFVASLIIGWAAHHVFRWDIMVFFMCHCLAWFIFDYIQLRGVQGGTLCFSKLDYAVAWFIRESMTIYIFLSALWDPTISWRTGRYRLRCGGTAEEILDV
Kind of assay: GCS enzymatic assay (MDCK cell lysate, NBD-ceramide to glucosylceramide, LC/MS). In kind it is biochemical, canine. Particulars: Table 2, the table does not say which of the assays; for pIC50: class symbols A, B, C, read-out: Data Range (IC50 values); for Data Range (% inhibition): class symbols D, E, F, NA (not active). The gist of the method:
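IC50 or percent inhibition came from LC/MS/MS (ESI+, MRM) of NBD-ceramide and glucosylceramide, with tolbutamide as internal standard. The reaction used MDCK (canine) cell lysate as the enzyme source and was ended with acetonitrile. Mock wells received 0.1% DMSO.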

pIC50: −log10 of the molar value.

In the case of `O=C(N[C@H](CN1CCC1)[C@H](O)c1cc(F)c2c(c1)OCCO2)[C@@H]1CCN(c2ccc(Cl)cc2)C1` [Compound 25, (R)-N-((1R,2R)-3-(azetidin-1-yl)-1-(8-fluoro-2,3-dihydrobenzo[b][1,4]dioxin-6-yl)-1-hydroxypropan-2-yl)-1-(4-chlorophenyl)pyrrolidine-3-carboxamide], the negative-log IC50 (pIC50) is 7.52 to 9.00. In the case of `O=C(N[C@H](CN1CCCC1)[C@H](O)c1ccc2c(c1)OCCO2)C1CCN(c2ccc(Cl)cc2)C1` (stereo partly drawn) [Compound 1C, 1-(4-chlorophenyl)-N-((1R,2R)-1-(2,3-dihydrobenzo[b][1,4]dioxin-6-yl)-1-hydroxy-3-(pyrrolidin-1-yl)propan-2-yl)pyrrolidine-3-carboxamide], the pIC50 is 7.52 to 9.00. For `O=C(N[C@H](CN1CCCC1)[C@H](O)c1ccc2c(c1)OCCO2)[C@H]1CCN(c2ccc(OC3CC3)nc2)C1` [Compound 58D, (S)-1-(6-cyclopropoxypyridin-3-yl)-N-((1R,2R)-1-(2,3-dihydrobenzo[b][1,4]dioxin-6-yl)-1-hydroxy-3-(pyrrolidin-1-yl)propan-2-yl)pyrrolidine-3-carboxamide], the “Data Range (% inhibition)” value is “F (1-49% (or less than 50%))”. In the case of `O=C(N[C@H](CN1CCCCC1)[C@H](O)c1ccc2c(c1)OCCO2)C1CCN(c2ccc(F)cc2)C1` (stereo partly drawn) [Compound 46A, N-((1R,2R)-1-(2,3-dihydrobenzo[b][1,4]dioxin-6-yl)-1-hydroxy-3-(piperidin-1-yl)propan-2-yl)-1-(4-fluorophenyl)pyrrolidine-3-carboxamide], the “Data Range (% inhibition)” value is “F (1-49% (or less than 50%))”. Consider `O=C(N[C@H](CN1CCCC1)[C@H](O)c1ccc(OC2CCCC2)c(Cl)c1)[C@@H]1CCN(c2ccc(Cl)cc2)C1` [Compound 141, (R)-N-((1R,2R)-1-(3-chloro-4-(cyclopentyloxy)phenyl)-1-hydroxy-3-(pyrrolidin-1-yl)propan-2-yl)-1-(4-chlorophenyl)pyrrolidine-3-carboxamide], for which the negative-log IC50 (pIC50) is 7.00 to 7.52. For `O=C(N[C@H](CN1CCCC1)[C@H](O)c1ccc2c(c1)OCCO2)C1CCN(c2ccc3cc(F)ccc3c2)C1` (stereo in doubt) [Compound 14D, (R)-N-((1R,2R)-1-(2,3-dihydrobenzo[b][1,4]dioxin-6-yl)-1-hydroxy-3-(pyrrolidin-1-yl)propan-2-yl)-1-(6-fluoronaphthalen-2-yl)pyrrolidine-3-carboxamide], the “Data Range (% inhibition)” value is “F (1-49% (or less than 50%))”. In the case of `O=C(N[C@H](CN1CCCCC1)[C@H](O)c1ccc2c(c1)OCCO2)[C@H]1CCN(c2ccc(F)cc2)C1` [Compound 46B, (S)-N-((1R,2R)-1-(2,3-dihydrobenzo[b][1,4]dioxin-6-yl)-1-hydroxy-3-(piperidin-1-yl)propan-2-yl)-1-(4-fluorophenyl)pyrrolidine-3-carboxamide], the “Data Range (% inhibition)” value is recorded as “NA (not active—a negative value was generated for % inhibition)”. On to `O=C(N[C@H](CN1CCCC1)[C@H](O)c1ccc2c(c1)OCCO2)[C@H]1CCN(c2ccc3nccnc3c2)C1` [Compound 83D, (S)-N-((1R,2R)-1-(2,3-dihydrobenzo[b][1,4]dioxin-6-yl)-1-hydroxy-3-(pyrrolidin-1-yl)propan-2-yl)-1-(quinoxalin-6-yl)pyrrolidine-3-carboxamide], for which the “Data Range (% inhibition)” value was “NA (not active—a negative value was generated for % inhibition)”.

As for `O=C(N[C@H](CN1CCCC1)[C@H](O)c1ccc(OC2CC2)c(Cl)c1)[C@@H]1CCN(c2ccc3cc(Cl)sc3c2)C1` [Compound 109, (R)-N-((1R,2R)-1-(3-chloro-4-cyclopropoxyphenyl)-1-hydroxy-3-(pyrrolidin-1-yl)propan-2-yl)-1-(2-chlorobenzo[b]thiophen-6-yl)pyrrolidine-3-carboxamide], the pIC50 was 7.00 to 7.52. For `O=C(N[C@H](CN1CCCC1)[C@H](O)c1cc(F)c2c(c1)OCCO2)[C@H]1CCN(c2ccc(F)cc2)C1` [Compound 35A, (S)-N-((1R,2R)-1-(8-fluoro-2,3-dihydrobenzo[b][1,4]dioxin-6-yl)-1-hydroxy-3-(pyrrolidin-1-yl)propan-2-yl)-1-(4-fluorophenyl)pyrrolidine-3-carboxamide], the pIC50 is 7.52 to 9.00.

By pIC50 is commonly meant −log10 of the IC50, conventionally taken in molar units.

The values are drawn from US10239832B2, “N-(1-hydroxy-3-(pyrrolidinyl)propan-2-yl)pyrrolidine-3-carboxamide derivatives as glucosylceramide synthase inhibitors” (BIOMARIN PHARMACEUTICAL INC., priority 2013, dated 2019).
